Reference: ChEMBL document CHEMBL1201862, “PubChem BioAssay data set” (2004)
The source made the active and inactive calls.

What was measured:
[1] = HEp-2 cell cytotoxicity, dose response, cytotoxicity control for RSV inhibitor project, HTS (AID 2410); type: functional; conditions: human respiratory syncytial virus
[2] = target: T1, Heat shock factor protein 1 (Mus musculus, UniProt P38532); experiment: inhibition of MG132-induced HSE-luciferase signal, confirmation, cell-based, NIH3T3, luminescence, dose retest (AID 2382); type: functional;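 also: NIH3T3 fibroblasts with HSF1-driven luciferase reporter stressed by proteasome inhibitor MG132; luminescence from HSF1-driven luciferase expression after 8 hours of MG132 stress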
T1 sequence (P38532 whole entry): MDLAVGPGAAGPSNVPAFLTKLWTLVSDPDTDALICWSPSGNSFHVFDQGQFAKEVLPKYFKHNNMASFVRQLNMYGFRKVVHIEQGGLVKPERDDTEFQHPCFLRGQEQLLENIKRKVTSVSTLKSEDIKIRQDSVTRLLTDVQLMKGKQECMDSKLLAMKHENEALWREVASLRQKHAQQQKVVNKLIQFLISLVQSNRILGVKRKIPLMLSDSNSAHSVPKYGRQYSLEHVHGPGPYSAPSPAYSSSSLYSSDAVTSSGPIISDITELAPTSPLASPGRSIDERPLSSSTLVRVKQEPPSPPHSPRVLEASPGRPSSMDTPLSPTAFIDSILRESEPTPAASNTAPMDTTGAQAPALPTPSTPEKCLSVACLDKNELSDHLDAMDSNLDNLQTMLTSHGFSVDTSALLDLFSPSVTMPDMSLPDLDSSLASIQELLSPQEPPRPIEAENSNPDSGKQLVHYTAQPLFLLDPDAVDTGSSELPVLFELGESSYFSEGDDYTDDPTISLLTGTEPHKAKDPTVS

[3] = target: Cytochrome P450 2C19 (Homo sapiens, UniProt P33261); experiment: Cytochrome panel assay with activity outcomes. Panel member name: p450-cyp2c19 Compounds with AC50 equal or less than 10 uM are considered active; type: functional
Cytochrome P450 2C19, sequence (P33261 whole entry): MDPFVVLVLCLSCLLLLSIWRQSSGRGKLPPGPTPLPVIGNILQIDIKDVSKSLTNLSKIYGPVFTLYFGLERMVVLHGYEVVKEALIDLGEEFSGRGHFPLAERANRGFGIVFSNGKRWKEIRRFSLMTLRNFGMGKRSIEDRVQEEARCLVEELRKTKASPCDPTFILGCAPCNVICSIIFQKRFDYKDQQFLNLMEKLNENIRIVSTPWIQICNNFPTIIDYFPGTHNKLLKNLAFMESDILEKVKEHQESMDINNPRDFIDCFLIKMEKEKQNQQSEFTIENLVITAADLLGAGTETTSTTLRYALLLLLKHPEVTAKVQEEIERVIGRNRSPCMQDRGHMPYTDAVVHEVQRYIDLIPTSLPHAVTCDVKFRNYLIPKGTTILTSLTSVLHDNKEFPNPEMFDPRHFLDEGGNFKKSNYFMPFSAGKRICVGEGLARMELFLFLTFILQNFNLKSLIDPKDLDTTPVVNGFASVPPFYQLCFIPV

[4] = target: Cytochrome P450 2C9 (Homo sapiens, UniProt P11712)
Cytochrome P450 2C9, sequence (P11712 whole entry): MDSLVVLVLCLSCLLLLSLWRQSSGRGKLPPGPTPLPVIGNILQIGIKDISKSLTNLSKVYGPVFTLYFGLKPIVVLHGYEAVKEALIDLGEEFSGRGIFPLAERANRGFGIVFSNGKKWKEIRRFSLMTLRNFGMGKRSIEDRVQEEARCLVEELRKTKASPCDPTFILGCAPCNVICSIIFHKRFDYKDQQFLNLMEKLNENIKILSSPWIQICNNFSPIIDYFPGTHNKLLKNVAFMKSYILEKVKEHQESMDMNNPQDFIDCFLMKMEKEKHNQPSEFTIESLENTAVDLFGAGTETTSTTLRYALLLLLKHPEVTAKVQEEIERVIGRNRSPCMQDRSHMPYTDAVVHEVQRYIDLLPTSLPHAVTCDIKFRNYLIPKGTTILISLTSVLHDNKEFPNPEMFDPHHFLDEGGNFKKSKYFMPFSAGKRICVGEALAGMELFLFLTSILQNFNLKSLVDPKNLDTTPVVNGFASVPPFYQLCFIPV

[5] = target: T2, Cytochrome P450 1A2 (Homo sapiens, UniProt P05177);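 also: PubChem cytochrome P450 panel assay, CYP1A2 panel member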
T2 sequence (P05177 whole entry): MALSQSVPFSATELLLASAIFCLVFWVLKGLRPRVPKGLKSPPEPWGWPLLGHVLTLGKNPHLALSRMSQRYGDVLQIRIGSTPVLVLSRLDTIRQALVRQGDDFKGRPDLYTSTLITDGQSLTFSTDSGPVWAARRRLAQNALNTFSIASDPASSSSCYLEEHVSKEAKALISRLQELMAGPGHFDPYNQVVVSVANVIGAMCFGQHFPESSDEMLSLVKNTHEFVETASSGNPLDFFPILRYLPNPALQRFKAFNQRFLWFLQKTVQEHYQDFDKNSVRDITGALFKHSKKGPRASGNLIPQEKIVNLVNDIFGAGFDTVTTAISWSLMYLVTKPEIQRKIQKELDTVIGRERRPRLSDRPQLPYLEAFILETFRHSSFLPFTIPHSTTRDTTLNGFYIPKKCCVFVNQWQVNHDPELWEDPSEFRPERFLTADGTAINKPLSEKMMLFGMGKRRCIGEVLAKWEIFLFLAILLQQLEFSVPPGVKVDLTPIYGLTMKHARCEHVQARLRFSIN

[6] = target: Cytochrome P450 2D6 (Homo sapiens, UniProt P10635);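 also: CYP2D6 member of a cytochrome P450 panel assay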
Cytochrome P450 2D6, sequence (P10635 whole entry): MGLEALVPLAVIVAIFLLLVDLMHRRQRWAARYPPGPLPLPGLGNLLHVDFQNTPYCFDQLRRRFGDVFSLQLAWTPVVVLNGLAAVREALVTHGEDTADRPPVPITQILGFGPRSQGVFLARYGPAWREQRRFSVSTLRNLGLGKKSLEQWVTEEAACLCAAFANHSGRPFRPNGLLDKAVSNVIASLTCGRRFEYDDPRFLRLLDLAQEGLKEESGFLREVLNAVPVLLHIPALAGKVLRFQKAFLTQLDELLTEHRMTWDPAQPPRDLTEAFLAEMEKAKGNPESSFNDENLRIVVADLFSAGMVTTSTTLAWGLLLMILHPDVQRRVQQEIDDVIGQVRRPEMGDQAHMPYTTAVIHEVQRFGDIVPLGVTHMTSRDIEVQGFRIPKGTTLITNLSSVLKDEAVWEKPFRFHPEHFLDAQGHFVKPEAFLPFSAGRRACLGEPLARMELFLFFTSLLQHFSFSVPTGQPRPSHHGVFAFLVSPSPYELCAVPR

[7] = target: Cytochrome P450 3A4 (Homo sapiens, UniProt P08684);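 also: CYP3A4 tested as one member of a cytochrome P450 panel screen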
Cytochrome P450 3A4, sequence (P08684 whole entry): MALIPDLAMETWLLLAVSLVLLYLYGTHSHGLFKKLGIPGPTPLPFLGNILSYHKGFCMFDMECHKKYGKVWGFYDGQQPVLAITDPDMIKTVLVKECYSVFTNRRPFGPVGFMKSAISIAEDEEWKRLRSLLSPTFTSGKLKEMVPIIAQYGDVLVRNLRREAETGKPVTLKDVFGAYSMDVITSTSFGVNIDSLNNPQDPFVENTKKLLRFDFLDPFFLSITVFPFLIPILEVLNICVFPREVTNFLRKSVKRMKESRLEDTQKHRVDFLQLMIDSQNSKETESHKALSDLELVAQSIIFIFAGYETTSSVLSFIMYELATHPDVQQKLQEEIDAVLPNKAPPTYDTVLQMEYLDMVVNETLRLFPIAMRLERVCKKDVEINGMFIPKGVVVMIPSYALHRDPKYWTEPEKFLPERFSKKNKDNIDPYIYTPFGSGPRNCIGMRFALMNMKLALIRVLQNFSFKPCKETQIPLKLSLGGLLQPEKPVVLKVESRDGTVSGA

[8] = Luminescence Cell-Based Dose Response HTS to Identify Activators of Luciferase Translation or Activity in H4 […] Cells. [Related pubchem assays: 1829 (Project Summary), 1814 (Primary HTS)]; type: functional
[9] = system: H4; experiment: Luminescence Cell-Based Dose Response HTS to Identify Activators of 5'UTR Stem-Loop Driven Prion Protein mRNA Translation in H4 Neuroglioblastoma Cells. [Related pubchem assays: 1829 (Project Summary), 1814 (Primary HTS)]; type: functional; conditions: Homo sapiens
[10] = system: Streptococcus sp. 'group A'; experiment: growth inhibition of control SK(-) GAS strain, dose response, counter-screen for streptokinase expression inhibitor project, luminescence, kanamycin, BacTiterGlo, confirmation (AID 1900); type: functional, organism-based
[11] = system: Streptococcus; experiment: Group A Streptococcus viability loss, dose response, counter-screen for streptokinase expression inhibitor project, luminescence, BacTiterGlo (AID 1915); type: functional, organism-based;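 also: potency for reduction of bacterial viability or growth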
[12] = Luminescence Cell-Based Dose Response HTS to Identify Inhibitors of 5'UTR Stem-Loop Driven Prion Protein mRNA Translation in H4 Neuroglioblastoma Cells. [Related pubchem assays: 1827 (Project Summary), 1813 (Primary HTS)]; type: functional

SMILES: COc1ccc2nc(O)c(CNc3ccccc3)cc2c1
- CC50 [1]: 34.4 µM (active)

SMILES: COc1cc(C(=O)Nc2ccccc2NC(=O)c2cc(OC)c(OC)c(OC)c2)cc(OC)c1OC
- EC50 [2]: > 195 µM (not active)

SMILES: COc1ccc(NC(=O)C(F)(F)F)cc1OC
- AC50 [3]: 22.4 µM (inconclusive)
- AC50 [4]: 39.8 µM (inconclusive)

SMILES: CCCNC(=O)Nc1ccc2c(c1)nc(C)n2C
- AC50 [3]: 0.562 µM (inconclusive)
- AC50 [5]: 15.8 µM (inconclusive)

SMILES: CCO/C(O)=C1\C(C)=NC2=C(C(=O)CCC2)C1c1cn(Cc2ccc(Cl)cc2Cl)nc1-c1ccccc1 (stereo not given)
- CC50 [1]: 30.6 µM (active)

SMILES: Cc1noc(C)c1-c1ccc2ncnc(Nc3ccc(F)cc3)c2c1
- AC50 [6]: 39.8 µM (inconclusive)
- AC50 [7]: 15.8 µM (inconclusive)

SMILES: COc1ccc([C@H]2CC(=O)C=C(c3ccc(Cl)c(C(F)(F)F)c3)C2)cc1
- CC50 [1]: 12.9 µM (active)

SMILES: COc1cc(/C=C2/C(=N)N3N=C(CC(=O)N4CCOCC4)SC3=NC2=O)ccc1OCc1ccccc1
- EC50 [8]: 10.5 µM (active)
- EC50 [9]: 14.5 µM (active)

SMILES: Cc1noc(C)c1C(=O)N1CCC[C@@]2(CCN(c3ccccc3)C2)C1
- AC50 [3]: 25.1 µM (inconclusive)
- AC50 [5]: 25.1 µM (inconclusive)
- AC50 [4]: 20 µM (inconclusive)

SMILES: N#Cc1c(Nc2cccc(F)c2)sc2c(O)cc(O)nc12
- EC50 [10]: 1.19 µM (active)
- EC50 [11]: 5.71 µM (active)

SMILES: c1ccc(CCCNc2nnnc3ccccc23)cc1
- AC50 [3]: 3.16 µM (inconclusive)

SMILES: c1ccc2c(NC3CC3)nc(-c3ccoc3)nc2c1
- AC50 [3]: 25.1 µM (inconclusive)

SMILES: Cc1ccc(/N=C/c2ccc[nH]2)c(O)c1
- EC50 [2]: > 195 µM (not active)

SMILES: Cn1c(CSc2nc3cc(Br)ccc3[nH]2)nc2ccccc21
- CC50 [1]: > 50 µM (active)

SMILES: Cc1cc(-c2ccc(C)c(S(=O)(=O)NCCC(C)N3CCCCCC3)c2)on1 (stereo not given)
- EC50 [2]: > 195 µM (not active)

SMILES: C/C(=N/NC(=O)CNC(=O)c1ccccn1)c1ccc([N+](=O)[O-])cc1
- EC50 [2]: > 195 µM (not active)

SMILES: CCOC(=O)C1=C(NC(=S)NC(=O)c2ccccc2)c2ccccc2CC1(C)CC (stereo not given)
- CC50 [1]: 12.5 µM (active)

SMILES: CC(C)NC(=O)COC(=O)C1CSC2(c3ccc(Br)cc3)CCC(=O)N12 (stereo not given)
- EC50 [2]: > 195 µM (not active)

SMILES: CC1CCN(C(S)=NCCc2ccccc2)CC1
- EC50 [8]: 0.102 µM (active)
- EC50 [9]: 31.3 µM (active)

SMILES: O=C(COC(=O)COc1ccccc1)Nc1ccc(OC(F)(F)F)cc1
- AC50 [3]: 39.8 µM (inconclusive)

SMILES: c1ccc2c(c1)-c1nc3ccccc3cc1[C@H]2N1CCOCC1
- AC50 [3]: 3.16 µM (inconclusive)
- AC50 [4]: 6.31 µM (inconclusive)

SMILES: CN(C)C(=O)c1ccc(-c2ccc3ncnc(NCc4cccs4)c3c2)cc1
- AC50 [6]: 20 µM (inconclusive)

SMILES: COc1ccc2c(C)cc(N3CCOCC3)nc2c1
- AC50 [3]: 31.6 µM (inconclusive)

SMILES: CC(CCc1ccccc1)NC(=O)CCNS(=O)(=O)c1ccccc1 (stereo not given)
- EC50 [2]: > 195 µM (not active)

SMILES: CCCOc1ccc(-c2n[nH]c(S)n2)cc1
- CC50 [1]: 25.1 µM (active)

SMILES: S=C(c1ccc(-c2ccc(Cl)cc2Cl)o1)N1CCCCC1
- EC50 [8]: 50 µM (active)
- EC50 [9]: 1.97 µM (active)

SMILES: COc1cccc(Nc2cc(C)c3ccccc3n2)c1
- CC50 [1]: 32 µM (active)

SMILES: CCOC(=O)C(/C=N/CC(=O)O)=C(\O)OCC
- AC50 [6]: 39.8 µM (inconclusive)

SMILES: O=C(NCc1ccccc1C(F)(F)F)C1CC(c2ccc(C(F)(F)F)cc2)=NO1 (stereo not given)
- EC50 [2]: > 195 µM (not active)

SMILES: CCOC(=O)N1CCN(c2nc(-c3cccs3)nc3ccccc23)CC1
- CC50 [1]: > 50 µM (active)

SMILES: CCc1nn(C(C)C(=O)N2CCN(c3ccccc3)CC2)c(=O)c2cc3occc3n12 (stereo not given)
- CC50 [1]: 20.4 µM (active)

SMILES: COC(=O)c1ccccc1NC(=O)c1ccc(F)cc1
- AC50 [3]: 25.1 µM (inconclusive)

SMILES: COc1ccc(-c2[nH]nc(C)c2-c2ccc(Cl)cc2)c(O)c1
- EC50 [10]: 9.86 µM (active)
- EC50 [11]: 11.1 µM (active)

SMILES: Cc1ccccc1CSc1nccn1-c1ccccc1
- AC50 [6]: 17.8 µM (inconclusive)

SMILES: Nc1ncnc2[nH]c(N3CCN(C(=O)c4ccccc4)CC3)nc12
- EC50 [2]: > 195 µM (not active)

SMILES: CN(NC1OC(=O)c2ccccc21)c1ccc(C(F)(F)F)cc1[N+](=O)[O-] (stereo not given)
- EC50 [2]: > 195 µM (not active)

SMILES: Cc1cccc(Cn2cnc3c(NS(C)(=O)=O)c(C)c(C)cc32)c1
- AC50 [6]: 35.5 µM (inconclusive)
- AC50 [4]: 1.26 µM (inconclusive)

SMILES: Cc1csc(NC(=O)C2=COCCO2)n1
- EC50 [8]: 3.11 µM (active)
- EC50 [9]: > 120 µM (not active)

SMILES: Cc1ccc2nc(-c3ccc(NC(=O)COC(=O)c4ccc([N+](=O)[O-])o4)cc3)sc2c1
- EC50 [12]: 10.9 µM (inconclusive)

SMILES: COc1ccc(/C=N/N(C)C2=NCCN2)c(OC)c1OC
- EC50 [2]: > 195 µM (not active)

SMILES: COc1ccc(Br)cc1S(=O)(=O)Nc1nc[nH]n1
- EC50 [10]: > 150 µM (not active)
- EC50 [11]: > 150 µM (not active)

SMILES: Nc1nc2ccc(Cl)cc2c2nc(-c3ccco3)nn12 [CGS-15943]
- AC50 [6]: 12.6 µM (inconclusive)
- AC50 [7]: 7.94 µM (inconclusive)
- AC50 [4]: 31.6 µM (inconclusive)

SMILES: CCCNC(=O)c1ccc(COc2ccc(CCC)cc2OC)o1
- EC50 [2]: > 195 µM (not active)

SMILES: CCOC(=O)c1c(-c2ccccc2)cn2ccccc12
- AC50 [6]: 3.16 µM (inconclusive)
- AC50 [7]: 12.6 µM (inconclusive)

SMILES: CC/C(O)=C(\C#N)c1nnc2n1CCCCC2
- AC50 [3]: 1 µM (inconclusive)
- AC50 [5]: 14.1 µM (inconclusive)

SMILES: CCOC(=O)c1c(C)[nH]c(C2=NN=C(NC3CC3)SC2)c1C
- CC50 [1]: 28.1 µM (active)

SMILES: COc1ccccc1-c1ccc2ncnc(N(C)C)c2c1
- AC50 [6]: 12.6 µM (inconclusive)

SMILES: COc1ccc(NC(=O)C2C(c3ccccc3)C2(Cl)Cl)cc1 (stereo not given)
- CC50 [1]: 17.7 µM (active)

SMILES: O=C(CN1c2ccccc2Sc2ccccc21)NNC(=O)Nc1ccc(Cl)cc1
- CC50 [1]: > 50 µM (active)

SMILES: C/C=C/c1ccc(OCC(=O)NCc2ccccc2OC)c(OC)c1
- CC50 [1]: 40.4 µM (active)

SMILES: O=C(COC(=O)/C=C/c1ccc(C(F)(F)F)cc1)NC1CC1
- EC50 [2]: > 195 µM (not active)

SMILES: CC(=O)Nc1ccc(O)c(-c2nc3ccccc3s2)c1
- EC50 [8]: 21.2 µM (active)
- EC50 [9]: 22.5 µM (active)

SMILES: CC1(C)Cc2c(C#N)c(NCCO)nc(-c3ccco3)c2CO1
- EC50 [2]: > 195 µM (not active)

SMILES: CCn1c(SCc2nc3ccccc3[nH]2)nnc1-c1ccc(OC)cc1
- AC50 [6]: 20 µM (inconclusive)

SMILES: CCC1CCCCN1S(=O)(=O)c1ccc(C(=O)Nc2nnc(C3=COCCO3)o2)cc1 (stereo not given)
- EC50 [10]: 4.61 µM (active)
- EC50 [11]: 10.7 µM (active)
